This is an account of results in patent US11331299B2, “Medicinal use of serrulatane diterpenes” (The University of Sydney, priority 2016, dated 2022).

The target in experiment [1] is pCAF(h) (Homo sapiens, UniProt Q92831). In words: Epigenetic enzyme assay, Histone acetyltransferases (HATs). The class given is biochemical. Particulars: read-out: % Inhibition of Control Values.
Experiment [2] has as its target T1, Monoamine Oxidase MAO-B (Homo sapiens, UniProt P27338).
T1 construct: host or cells: Insect Hi5 cells
T1 sequence (P27338 1-520): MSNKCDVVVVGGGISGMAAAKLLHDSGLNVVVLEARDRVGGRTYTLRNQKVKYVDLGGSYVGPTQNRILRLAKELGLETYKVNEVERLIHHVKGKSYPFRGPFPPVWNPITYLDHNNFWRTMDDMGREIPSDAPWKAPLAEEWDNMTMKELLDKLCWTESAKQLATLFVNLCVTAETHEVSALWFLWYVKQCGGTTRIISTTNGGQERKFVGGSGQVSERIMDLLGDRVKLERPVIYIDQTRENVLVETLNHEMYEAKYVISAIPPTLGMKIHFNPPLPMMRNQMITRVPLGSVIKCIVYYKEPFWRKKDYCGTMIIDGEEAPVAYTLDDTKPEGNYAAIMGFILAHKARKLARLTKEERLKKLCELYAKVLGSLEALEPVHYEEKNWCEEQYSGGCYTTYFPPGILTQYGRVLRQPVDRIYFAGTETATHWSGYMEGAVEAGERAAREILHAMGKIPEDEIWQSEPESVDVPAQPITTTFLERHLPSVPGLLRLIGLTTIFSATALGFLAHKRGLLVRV
In words: Monoamine Oxidase MAO-B. Conditions: for remaining activity at 10 µM: assay year 2015, read-out: % Control Response. The class given is biochemical. As for the experimental part: (§1) The in vitro pharmacological studies were conducted by Eurofins PanLab (Taiwan) using the parameters shown in Table 13 with respect to appropriate literature references.

Experiment [3] addresses PRMT8 (h) (Homo sapiens, UniProt Q9NR22). Description: Epigenetic enzyme assay, Methyltransferases (MTs). The class given is biochemical. Conditions: read-out: % Inhibition of Control Values.
The target in experiment [4] is T2, Sirtuin 7 (h) (Homo sapiens, UniProt Q9NRC8).
T2 sequence (Q9NRC8 1-400): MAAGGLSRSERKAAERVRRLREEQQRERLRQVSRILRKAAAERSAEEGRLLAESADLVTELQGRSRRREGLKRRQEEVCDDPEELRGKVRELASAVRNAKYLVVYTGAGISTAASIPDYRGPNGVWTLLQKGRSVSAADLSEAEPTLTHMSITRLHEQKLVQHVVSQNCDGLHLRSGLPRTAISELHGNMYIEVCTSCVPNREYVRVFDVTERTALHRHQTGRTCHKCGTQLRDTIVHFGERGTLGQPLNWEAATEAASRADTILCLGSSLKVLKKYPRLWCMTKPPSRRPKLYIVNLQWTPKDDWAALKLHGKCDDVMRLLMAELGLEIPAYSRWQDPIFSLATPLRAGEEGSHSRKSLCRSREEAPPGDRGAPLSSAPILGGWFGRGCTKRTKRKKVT
Description: Epigenetic enzyme assay, Sirtuins. The class given is biochemical. Conditions: 10 μM; read-out: % Inhibition of Control Values.

Experiment [5] deals with MYST4(h) (Homo sapiens, UniProt Q8WYB5). In words: Epigenetic enzyme assay, Histone acetyltransferases (HATs). The class given is biochemical. Conditions: for inhibition at 10 µM: read-out: % Inhibition of Control Values.
Chain of MYST4(h) (Q8WYB5 whole entry): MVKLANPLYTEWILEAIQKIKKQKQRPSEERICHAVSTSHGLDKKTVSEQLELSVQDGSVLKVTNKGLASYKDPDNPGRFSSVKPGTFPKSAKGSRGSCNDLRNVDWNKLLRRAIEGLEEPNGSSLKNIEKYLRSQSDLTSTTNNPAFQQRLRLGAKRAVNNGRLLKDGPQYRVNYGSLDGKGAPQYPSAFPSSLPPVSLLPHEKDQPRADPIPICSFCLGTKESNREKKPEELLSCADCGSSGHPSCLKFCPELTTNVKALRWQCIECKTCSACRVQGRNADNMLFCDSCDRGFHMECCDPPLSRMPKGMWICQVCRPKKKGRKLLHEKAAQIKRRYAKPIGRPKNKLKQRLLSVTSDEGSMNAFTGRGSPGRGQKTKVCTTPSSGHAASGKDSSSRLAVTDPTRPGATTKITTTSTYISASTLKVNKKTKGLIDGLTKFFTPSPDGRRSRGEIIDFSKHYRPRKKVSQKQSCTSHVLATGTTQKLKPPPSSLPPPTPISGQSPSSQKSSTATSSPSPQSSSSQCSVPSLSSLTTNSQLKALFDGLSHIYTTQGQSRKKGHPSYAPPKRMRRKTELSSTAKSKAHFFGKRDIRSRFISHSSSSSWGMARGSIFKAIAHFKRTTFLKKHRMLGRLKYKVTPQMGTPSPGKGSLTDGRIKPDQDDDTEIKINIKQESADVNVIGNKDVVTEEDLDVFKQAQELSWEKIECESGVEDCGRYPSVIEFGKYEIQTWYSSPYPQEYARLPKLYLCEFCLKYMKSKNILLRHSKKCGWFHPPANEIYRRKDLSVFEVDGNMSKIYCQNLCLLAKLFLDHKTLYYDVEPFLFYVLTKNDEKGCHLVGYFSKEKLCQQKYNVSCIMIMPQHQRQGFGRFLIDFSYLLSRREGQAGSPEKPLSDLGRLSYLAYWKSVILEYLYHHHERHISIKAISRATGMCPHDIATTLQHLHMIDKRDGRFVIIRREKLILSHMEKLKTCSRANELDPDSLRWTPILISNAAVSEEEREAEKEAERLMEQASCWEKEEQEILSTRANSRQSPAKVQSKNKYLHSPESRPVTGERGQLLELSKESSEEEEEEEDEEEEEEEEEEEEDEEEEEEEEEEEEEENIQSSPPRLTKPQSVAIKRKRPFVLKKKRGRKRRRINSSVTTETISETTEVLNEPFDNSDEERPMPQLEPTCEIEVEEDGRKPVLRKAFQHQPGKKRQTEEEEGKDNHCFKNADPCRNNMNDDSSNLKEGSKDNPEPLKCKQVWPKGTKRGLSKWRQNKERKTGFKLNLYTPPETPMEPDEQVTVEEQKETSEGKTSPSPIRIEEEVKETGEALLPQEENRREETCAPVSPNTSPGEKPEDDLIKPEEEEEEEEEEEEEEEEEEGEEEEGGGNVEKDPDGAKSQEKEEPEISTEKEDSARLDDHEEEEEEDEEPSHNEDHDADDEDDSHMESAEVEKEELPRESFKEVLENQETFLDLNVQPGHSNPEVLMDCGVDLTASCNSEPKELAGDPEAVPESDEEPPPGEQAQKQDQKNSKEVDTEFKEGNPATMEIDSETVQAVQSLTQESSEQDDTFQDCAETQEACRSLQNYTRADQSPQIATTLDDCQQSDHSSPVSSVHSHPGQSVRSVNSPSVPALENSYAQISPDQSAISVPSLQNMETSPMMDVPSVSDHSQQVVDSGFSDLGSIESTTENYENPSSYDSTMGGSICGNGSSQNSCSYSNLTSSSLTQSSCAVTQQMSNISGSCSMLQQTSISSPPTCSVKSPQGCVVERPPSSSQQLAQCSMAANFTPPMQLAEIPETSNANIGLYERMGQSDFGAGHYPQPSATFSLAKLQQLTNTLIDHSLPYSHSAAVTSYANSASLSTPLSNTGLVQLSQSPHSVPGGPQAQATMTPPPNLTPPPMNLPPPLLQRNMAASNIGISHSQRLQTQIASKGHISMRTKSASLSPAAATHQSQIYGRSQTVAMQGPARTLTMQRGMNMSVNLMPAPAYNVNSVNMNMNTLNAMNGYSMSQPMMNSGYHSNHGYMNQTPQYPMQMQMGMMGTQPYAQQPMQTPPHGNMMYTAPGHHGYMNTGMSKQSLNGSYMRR
For experiment [6], the target named is T3, Angiotensin AT2 (Homo sapiens, UniProt P50052).
T3 construct: expressed in transfected cells; host or cells: CHO-K1 cells
T3 sequence (P50052 1-363): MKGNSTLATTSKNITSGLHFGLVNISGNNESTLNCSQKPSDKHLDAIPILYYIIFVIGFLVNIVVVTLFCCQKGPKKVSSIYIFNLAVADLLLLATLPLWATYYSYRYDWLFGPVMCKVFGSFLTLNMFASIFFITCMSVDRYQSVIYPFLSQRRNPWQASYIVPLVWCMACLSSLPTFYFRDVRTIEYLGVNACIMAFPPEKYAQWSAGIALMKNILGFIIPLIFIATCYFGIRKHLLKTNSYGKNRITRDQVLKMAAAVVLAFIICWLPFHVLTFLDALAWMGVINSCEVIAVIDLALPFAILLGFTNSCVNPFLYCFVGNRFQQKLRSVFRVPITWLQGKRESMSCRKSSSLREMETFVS
In words: Angiotensin AT2 radio ligand binding. Conditions: assay year 2015, read-out: % Control Response. As for the experimental part:
as §1

Experiment [7] relates to SK-NEP-1 kidney. In words: OncoPanel cell proliferation assay (10-day). The class given is cell-based. Particulars: Homo sapiens; for EC50: read-out: Cell Count EC50; for IC50: read-out: Cell Count IC50.
For experiment [8], the target named is T4, Lipoxygenase 12-LO (Homo sapiens, UniProt P18054).
T4 construct: Human platelets; from tissue; host or cells: human platelets
T4 sequence (P18054 1-663): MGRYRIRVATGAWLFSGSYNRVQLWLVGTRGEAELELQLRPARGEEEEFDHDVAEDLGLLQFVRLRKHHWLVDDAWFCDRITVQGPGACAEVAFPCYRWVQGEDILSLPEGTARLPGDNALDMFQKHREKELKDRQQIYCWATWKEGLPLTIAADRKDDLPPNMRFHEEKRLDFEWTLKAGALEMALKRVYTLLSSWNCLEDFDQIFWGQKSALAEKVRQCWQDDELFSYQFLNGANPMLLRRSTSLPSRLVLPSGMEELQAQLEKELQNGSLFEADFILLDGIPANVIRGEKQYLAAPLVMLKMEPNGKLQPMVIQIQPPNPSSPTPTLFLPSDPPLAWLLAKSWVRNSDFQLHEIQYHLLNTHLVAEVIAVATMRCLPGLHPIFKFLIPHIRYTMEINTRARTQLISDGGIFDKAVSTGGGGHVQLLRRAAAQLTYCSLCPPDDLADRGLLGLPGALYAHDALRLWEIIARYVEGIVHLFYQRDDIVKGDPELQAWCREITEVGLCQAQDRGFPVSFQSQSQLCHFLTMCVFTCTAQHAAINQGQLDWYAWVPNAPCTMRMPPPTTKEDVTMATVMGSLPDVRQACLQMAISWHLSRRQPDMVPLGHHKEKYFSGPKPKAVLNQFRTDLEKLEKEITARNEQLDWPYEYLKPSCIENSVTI
Description: Lipoxygenase 12-LO. The class given is biochemical. Conditions: assay year 2015, read-out: % Control Response. As for the experimental part:
as §1

The test system of experiment [9] is Steroid 5alpha-Reductase. Description: Steroid 5α-Reductase. The class given is biochemical, Wistar Rat. Particulars: 10 μM; assay year 2015. On the procedure:
as §1

The target in experiment [10] is UTX (h) (Homo sapiens, UniProt O15550). In words: Epigenetic enzyme assay, Demethylases (KDMs). Particulars: for inhibition at 10 µM: read-out: % Inhibition of Control Values. The class given is biochemical.
Chain of UTX (h) (O15550 whole entry): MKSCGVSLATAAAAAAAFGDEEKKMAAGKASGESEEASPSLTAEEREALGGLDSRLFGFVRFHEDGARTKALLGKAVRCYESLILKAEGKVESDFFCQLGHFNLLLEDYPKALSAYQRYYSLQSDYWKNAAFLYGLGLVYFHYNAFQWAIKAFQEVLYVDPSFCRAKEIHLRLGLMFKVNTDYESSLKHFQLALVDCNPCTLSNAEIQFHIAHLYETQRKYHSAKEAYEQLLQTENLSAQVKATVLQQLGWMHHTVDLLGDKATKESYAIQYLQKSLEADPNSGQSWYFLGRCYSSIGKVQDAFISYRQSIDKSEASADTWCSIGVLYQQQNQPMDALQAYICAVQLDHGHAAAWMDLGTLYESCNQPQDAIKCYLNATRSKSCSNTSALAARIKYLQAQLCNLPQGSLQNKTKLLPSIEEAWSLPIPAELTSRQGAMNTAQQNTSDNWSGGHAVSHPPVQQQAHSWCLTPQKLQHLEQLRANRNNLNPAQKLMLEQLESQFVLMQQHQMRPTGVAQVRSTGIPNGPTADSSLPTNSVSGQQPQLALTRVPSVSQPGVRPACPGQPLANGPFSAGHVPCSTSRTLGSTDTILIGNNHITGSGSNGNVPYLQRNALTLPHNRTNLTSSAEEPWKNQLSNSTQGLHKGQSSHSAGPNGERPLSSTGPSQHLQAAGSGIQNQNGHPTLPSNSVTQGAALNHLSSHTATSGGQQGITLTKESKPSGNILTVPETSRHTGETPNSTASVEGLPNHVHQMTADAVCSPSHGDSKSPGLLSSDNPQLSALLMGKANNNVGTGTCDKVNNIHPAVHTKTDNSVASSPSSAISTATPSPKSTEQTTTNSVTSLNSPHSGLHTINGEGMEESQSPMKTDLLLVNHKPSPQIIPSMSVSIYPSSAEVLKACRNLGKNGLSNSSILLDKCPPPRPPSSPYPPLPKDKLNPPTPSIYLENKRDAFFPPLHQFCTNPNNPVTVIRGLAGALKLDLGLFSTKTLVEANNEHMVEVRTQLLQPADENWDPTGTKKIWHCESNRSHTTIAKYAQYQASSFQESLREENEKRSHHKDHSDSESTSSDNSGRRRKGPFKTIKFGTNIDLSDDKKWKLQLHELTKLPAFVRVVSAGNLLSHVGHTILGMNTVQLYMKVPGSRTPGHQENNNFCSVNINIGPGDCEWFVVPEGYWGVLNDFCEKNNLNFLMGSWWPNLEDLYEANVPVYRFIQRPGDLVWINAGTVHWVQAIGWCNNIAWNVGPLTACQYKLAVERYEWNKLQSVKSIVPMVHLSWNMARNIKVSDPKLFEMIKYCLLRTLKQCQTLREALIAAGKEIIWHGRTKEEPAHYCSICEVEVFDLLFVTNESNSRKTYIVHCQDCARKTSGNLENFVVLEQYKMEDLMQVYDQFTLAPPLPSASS
Experiment [11] addresses T5, Phospholipase sPLA2-V (Homo sapiens, UniProt P39877).
T5 construct: host or cells: E. coli
T5 sequence (P39877 21-138): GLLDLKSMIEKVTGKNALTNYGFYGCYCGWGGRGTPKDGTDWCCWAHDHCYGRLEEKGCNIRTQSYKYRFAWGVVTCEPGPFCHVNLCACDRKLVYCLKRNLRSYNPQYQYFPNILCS
Description: Phospholipase sPLA2-V. The class given is biochemical. Particulars: assay year 2015, read-out: % Control Response. On the procedure:
as §1

[12] abbreviates: SK-NEP-1, Kidney, read-out: Cell Count GI50.
The mark [13] stands for this setting: Table 11, inhibition/concentration-response curve.

Read-outs that look alike come from different tables or passages of the source.

Chain of PRMT8 (h) (Q9NR22 whole entry): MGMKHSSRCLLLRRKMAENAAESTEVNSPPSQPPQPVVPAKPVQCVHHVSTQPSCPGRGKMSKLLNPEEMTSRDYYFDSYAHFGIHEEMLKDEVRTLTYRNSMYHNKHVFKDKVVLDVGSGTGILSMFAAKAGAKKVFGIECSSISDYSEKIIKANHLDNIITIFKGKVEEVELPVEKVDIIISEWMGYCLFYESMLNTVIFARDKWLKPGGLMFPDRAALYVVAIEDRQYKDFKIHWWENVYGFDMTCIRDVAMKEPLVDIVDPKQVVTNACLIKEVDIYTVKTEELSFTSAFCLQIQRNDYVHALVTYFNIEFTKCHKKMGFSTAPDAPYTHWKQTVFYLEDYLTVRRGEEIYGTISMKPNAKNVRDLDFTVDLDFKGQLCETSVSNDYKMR
Chain of pCAF(h) (Q92831 whole entry): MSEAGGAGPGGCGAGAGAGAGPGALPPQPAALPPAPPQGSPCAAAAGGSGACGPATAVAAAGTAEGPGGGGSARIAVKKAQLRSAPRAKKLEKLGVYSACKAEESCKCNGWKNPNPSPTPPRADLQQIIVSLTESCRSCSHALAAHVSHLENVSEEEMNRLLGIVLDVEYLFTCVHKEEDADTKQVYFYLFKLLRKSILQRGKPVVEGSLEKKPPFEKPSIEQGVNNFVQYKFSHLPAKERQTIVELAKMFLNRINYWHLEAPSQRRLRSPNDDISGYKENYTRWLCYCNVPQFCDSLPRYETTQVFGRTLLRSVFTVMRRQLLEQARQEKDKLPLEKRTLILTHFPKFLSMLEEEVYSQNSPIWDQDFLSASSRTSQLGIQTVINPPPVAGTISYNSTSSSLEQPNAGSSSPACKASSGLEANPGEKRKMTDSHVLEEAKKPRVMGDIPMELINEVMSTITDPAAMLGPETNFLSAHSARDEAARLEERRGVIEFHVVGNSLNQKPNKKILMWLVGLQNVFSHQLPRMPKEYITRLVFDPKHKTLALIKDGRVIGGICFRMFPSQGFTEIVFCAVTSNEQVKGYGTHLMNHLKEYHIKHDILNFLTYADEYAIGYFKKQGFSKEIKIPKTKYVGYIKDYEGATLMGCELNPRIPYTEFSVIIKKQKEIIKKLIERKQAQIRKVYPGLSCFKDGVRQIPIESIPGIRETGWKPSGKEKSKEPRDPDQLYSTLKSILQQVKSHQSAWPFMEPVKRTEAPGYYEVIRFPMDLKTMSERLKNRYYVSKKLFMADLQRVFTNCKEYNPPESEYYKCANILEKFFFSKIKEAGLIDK

By inhibition is commonly meant the relative decrease from the control value, in per cent. Usually GI50 stands for the concentration that inhibits growth by half. As usually defined, the EC50 is the midpoint of the concentration-response curve. One may read the IC50 as the concentration at which inhibition is half-maximal. As for `CC(C)=CCC[C@H](CO)[C@@H]1CC[C@@H](C)c2c1cc(C)c(O)c2O` [Compound 1, 7,8,18-trihydroxyserrulat-14-ene], the inhibition at 10 µM in experiment [1] is -25%; in [3], 5%; in experiment [4], 7%; in experiment [5] it was 25%; in experiment [10] (10 μM), 68%. For the same molecule, the “% Control Response” value was “potent inhibitor” in experiment [2] (10 μM, assay year 2015) and 2% in [9]. In addition, the remaining activity at 10 µM in experiment [2] is 75%; in experiment [6], 29%; in [8], 60%; in [11] it was 4%. The GI50 in experiment [7] (SK-NEP-1, read-out: GI50) turned out to be 6.18 nM; in [7] (setting [12]), 6 nM. Also, in experiment [7] (SK-NEP-1, Kidney), the EC50 was 10 nM. The IC50 is 10 nM in experiment [7] (SK-NEP-1, Kidney) and 6700 nM in experiment [10] (setting [13]). Moreover, the “% Inhibition of Control Values” in experiment [10] (10 μM) is listed as “significant inhibitory activity”.

As to `CC(C)=CCC[C@H](C)[C@@H]1CC[C@@H](C)c2c1cc(C)c(O)c2O` [Compound 4, 7,8-dihydroxyserrulat-14-ene], the IC50 in [5] (setting [13]) stood at 4200 nM. Besides, in experiment [7] (SK-NEP-1, Kidney), the EC50 stood at 9620 nM and the IC50 came out at 9630 nM. For the same molecule, in experiment [7] (setting [12]), the GI50 was 9620 nM.

Take `CC(C)=CCC[C@@H]1COc2c(C)cc(O)c3c2[C@H]1CC[C@H]3C` [Compound 3, 5,18-epoxy-8-hydroxyserrulat-14-ene]: the inhibition at 10 µM in experiment [1] is -20%; in [3], -26%; in [4], -8%; in [5], 71%; in experiment [10] (10 μM) it was 27%. The remaining activity at 10 µM was determined as 18% in experiment [2], 9% in [6], 29% in [8] and 0% in experiment [11]. Besides, the “% Control Response” value in experiment [9] turned out to be 3%.

As to `CC(C)=CCC[C@@H]1C(O)Oc2c(C)cc(O)c3c2[C@H]1CC[C@H]3C` (stereo partly drawn) [Compound 2, 5,18-epoxyserrulat-14-en-8,18-diol], the inhibition at 10 µM was -26% in [1]; 24% in [3]; -2% in experiment [4]; 39% in experiment [5]; 5% in experiment [10] (10 μM). The remaining activity at 10 µM in experiment [2] was found to be 39%; in experiment [6], 18%; in experiment [8] it was 40%; in [11], 3%. For the same molecule, the GI50 is 60.6 nM in [7] (SK-NEP-1, read-out: GI50) and 60 nM in experiment [7] (setting [12]). In addition, the EC50 in experiment [7] (SK-NEP-1, Kidney) was 60 nM. Besides, the IC50 in experiment [7] (SK-NEP-1, Kidney) came out at 60 nM. Also, the “% Control Response” value in experiment [9] is −6%.
